Data from article PMC3083694, “Effects of Intermediates between Vitamins K2 and K3 on Mammalian DNA Polymerase Inhibition and Anti-Inflammatory Activity” (International Journal of Molecular Sciences, 2011).

Tests used:
[1] = target: Calf Terminal deoxynucleotidyl transferase (Bos taurus, UniProt P06526); test: DNA polymerase activity assay, calf TdT; assay type: biochemical; conditions: X-family pol; read-out: IC50 Value of MK-2, Calf Terminal deoxynucleotidyl transferase
Protocol: (§1) Pols from mammals, a fish (cherry salmon), an insect (fruit fly) and a plant (cauliflower) were purified, and prokaryotic pols and other DNA metabolic enzymes, such as T7 RNA polymerase, T4 polynucleotide kinase and bovine deoxyribonuclease I, were purchased as described in our previous report. The activities of all pols and other DNA metabolic enzymes were measured as described in previous reports.
(§2) The components of the pol assay were poly(dA)/oligo(dT)18 and dTTP as the DNA template-primer and 2′-deoxyribonucleoside 5′-triphosphate (dNTP) substrate, respectively. VK2, VK3, and their synthesized derivatives (i.e., MK-3, MK-2 and MK-1) were dissolved in dimethyl sulfoxide (DMSO) at various concentrations and sonicated for 30 s. The sonicated samples (4 μL) were mixed with 16 μL of each pol enzyme (final amount, 0.05 units) in 50 mM Tris-HCl (pH 7.5) containing 1 mM dithiothreitol, 50% glycerol and 0.1 mM EDTA, and kept at 0 °C for 10 min. […] Activity without the inhibitor was considered to be 100%, and the activity remaining at each concentration of inhibitor was determined relative to this value. […]

[2] = tested on: nuclear translocation of NF-κB p65 in RAW264.7 cells; test: LPS-induced nuclear translocation of NF-κB p65 (Western blot); assay type: cell-based, mouse; conditions: 10 μM MK-2 30 min, then 100 ng/mL LPS 30 min, LPS alone 4.47-fold
Protocol: RAW264.7 cells on a 6-well plate at 5 × 10^5 cells/well were incubated with 10 μM of MK-2 or DMSO (1 μL/mL) as a vehicle control for 30 min, followed by treatment with 100 ng/mL of LPS for 30 min. After treatment, cells were harvested with lysis buffer consisting of 10 mM Hepes (pH 7.9), 10 mM KCl, 1.5 mM MgCl2 and 0.5 mM DTT containing protease inhibitors (1 mM phenylmethylsulfonyl fluoride [PMSF], 5 μg/mL of leupeptin and 5 μg/mL of aprotinin) and phosphatase inhibitors (10 mM NaF and 1 mM Na3VO4) and stood on ice for 15 min with occasional mixing. The mixture was centrifuged at 1000 × g for 10 min at 4 °C. […] The protein concentration was measured by using a bicinchoninic acid (BCA) assay kit in accordance with the manufacturer’s protocol. […]
The nuclear proteins (30–50 μg of protein) were boiled in a quarter-volume of sample buffer (1 M Tris-HCl [pH 7.5], 640 mM 2-mercaptoethanol, 0.2% bromphenol blue, 4% SDS and 20% glycerol) and then separated on 10% SDS polyacrylamide gels. […] The protein-antibody complex was visualized with ChemiLumiONE (Nacalai Tesque, Kyoto, Japan) and detected using an Image Reader (LAS-3000 Imaging System, Fuji Photo Film, Tokyo, Japan). The intensity of each band was analyzed using ImageJ, which was developed at the National Institute of Health.

[3] = target: B-family pols (mammalian); test: DNA polymerase activity assay, mammalian B-family pols; assay type: biochemical, mammals; conditions: range over mammalian B-family pols α, δ, ɛ; read-out: 50% inhibition of the B family of pols
Protocol: as §1, §2

Calf Terminal deoxynucleotidyl transferase, sequence (P06526 whole entry): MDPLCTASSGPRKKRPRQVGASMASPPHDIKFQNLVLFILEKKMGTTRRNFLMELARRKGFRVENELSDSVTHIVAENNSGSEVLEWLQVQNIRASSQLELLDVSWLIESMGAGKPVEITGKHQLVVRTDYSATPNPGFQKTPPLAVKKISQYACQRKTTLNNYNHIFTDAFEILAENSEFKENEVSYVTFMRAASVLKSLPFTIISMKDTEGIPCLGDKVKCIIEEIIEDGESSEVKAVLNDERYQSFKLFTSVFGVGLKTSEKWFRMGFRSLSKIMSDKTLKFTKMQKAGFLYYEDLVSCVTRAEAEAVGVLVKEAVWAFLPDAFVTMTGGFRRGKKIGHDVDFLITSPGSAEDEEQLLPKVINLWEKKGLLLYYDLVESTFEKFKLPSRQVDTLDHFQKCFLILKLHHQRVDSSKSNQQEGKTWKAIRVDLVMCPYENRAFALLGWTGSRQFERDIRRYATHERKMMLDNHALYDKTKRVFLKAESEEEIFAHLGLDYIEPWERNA

In the case of `CC(C)=CCC/C(C)=C/CC1=C(C)C(=O)c2ccccc2C1=O` [MK-2], the IC50 [1] is reported as 29.4 ± 1.7 µM, the “LPS-stimulated nuclear translocation of NF-κB p65 relative to treatment without LPS” value [2] is reported as 2.04 fold and the IC50 [3] is reported as 27.6 to 29.1 µM.
